Data reported in patent publication US11891386B2, “Indole compounds and their use” (ARIAGEN, INC., priority 2017, dated 2024).

Tested on: EMT-6 syngeneic mouse tumor model (breast cancer)
Assay: Anti-tumor activity, EMT-6 syngeneic mouse tumor model
Format: in vivo
Details: EMT6, 648 h, Study 2, EMT-6, 160 mpk, D27, read-out: TGI (tumor growth inhibition)

COC(=O)c1csc(C(=O)c2c[nH]c3ccccc23)n1 [ARI-001, ITE]
inhibition in vivo at 160 mg/kg: 75.1%
